From patent US7138404B2, “4-aminopyrimidine derivatives” (Hoffmann-La Roche Inc., priority 2001, dated 2006)

Test system: not given
Assay: not given
Conditions: not given

melting point [°C] | SMILES
94 | Nc1nc(SCc2nc(C3CC3)no2)ncc1Cc1ccccc1 [Example 33, 5-Benzyl-2-(3-cyclopropyl-[1,2,4]oxadiazol-5-ylmethylsulfanyl)-pyrimidin-4-ylamine]

Target: T1, rat mGlu 5a receptor (Rattus norvegicus, UniProt P31424)
T1 construct: expressed in transfected cells; host or cells: EBNA cells (transient transfection)
T1 sequence (P31424 21-1171 isoform P31424-2 limits assumed): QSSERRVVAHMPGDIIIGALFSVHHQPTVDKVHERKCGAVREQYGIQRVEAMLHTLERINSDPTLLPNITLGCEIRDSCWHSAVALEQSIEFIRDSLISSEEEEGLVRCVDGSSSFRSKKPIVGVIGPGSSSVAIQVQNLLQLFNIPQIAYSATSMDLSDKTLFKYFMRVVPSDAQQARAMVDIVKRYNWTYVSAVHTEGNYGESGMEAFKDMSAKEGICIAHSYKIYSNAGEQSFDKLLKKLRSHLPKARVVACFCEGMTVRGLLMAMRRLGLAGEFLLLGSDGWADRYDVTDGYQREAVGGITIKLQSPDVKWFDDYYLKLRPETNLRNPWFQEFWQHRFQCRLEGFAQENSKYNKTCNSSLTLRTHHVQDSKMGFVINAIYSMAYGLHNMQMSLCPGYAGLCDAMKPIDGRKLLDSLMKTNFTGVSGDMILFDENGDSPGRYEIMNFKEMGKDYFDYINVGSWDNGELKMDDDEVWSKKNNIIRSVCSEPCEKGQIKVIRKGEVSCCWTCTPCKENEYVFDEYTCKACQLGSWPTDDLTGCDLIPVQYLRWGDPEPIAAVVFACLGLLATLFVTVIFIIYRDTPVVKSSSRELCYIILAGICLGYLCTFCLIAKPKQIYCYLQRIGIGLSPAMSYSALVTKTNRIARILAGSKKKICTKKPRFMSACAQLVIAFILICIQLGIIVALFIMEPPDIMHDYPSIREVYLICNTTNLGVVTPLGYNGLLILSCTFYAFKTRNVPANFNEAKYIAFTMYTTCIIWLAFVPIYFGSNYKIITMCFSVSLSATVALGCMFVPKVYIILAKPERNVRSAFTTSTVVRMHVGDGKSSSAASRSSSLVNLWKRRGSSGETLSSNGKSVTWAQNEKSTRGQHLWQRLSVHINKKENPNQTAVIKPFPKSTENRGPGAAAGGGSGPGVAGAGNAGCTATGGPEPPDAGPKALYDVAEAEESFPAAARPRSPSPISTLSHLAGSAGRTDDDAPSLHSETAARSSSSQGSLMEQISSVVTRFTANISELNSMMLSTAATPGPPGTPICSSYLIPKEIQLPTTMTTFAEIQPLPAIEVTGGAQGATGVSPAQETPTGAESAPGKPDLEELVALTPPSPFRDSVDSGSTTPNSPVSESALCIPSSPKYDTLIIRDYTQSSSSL
Assay: [Ca2+]i measurement (FLIPR) on mGlu 5a transfected EBNA cells, antagonist mode
Assay type: cell-based
Conditions: rat mGlu 5a transiently transfected EBNA cells; Fluo 3-AM; tested against 10 μM glutamate as agonist
Protocol: The pharmacological activity of the compounds was tested using the following method:
cDNA encoding rat mGlu 5a receptor was transiently transfected into EBNA cells using a procedure described by E. -J. Schlaeger and K. Christensen (Cytotechnology 1998, 30, 71–83). [Ca^2+]i measurements were performed on mGlu 5a transfected EBNA cells after incubation of the cells with Fluo 3-AM (obtainable by FLUKA, 0.5 μM final concentration) for 1 hour at 37° C. followed by 4 washes with assay buffer (DMEM supplemented with Hank's salt and 20 mM HEPES. [Ca^2+]i measurements were done using a fluorometric imaging plate reader (FLIPR, Molecular Devices Corporation, La Jolla, Calif., USA). When compounds were evaluated as antagonists they were tested against 10 μM glutamate as agonist.
The inhibition (antagonists) curves were fitted with a four parameter logistic equation giving IC50, and Hill coefficient using the iterative non linear curve fitting software Origin (Microcal Software Inc., Northampton, Mass., USA).

SMILES | IC50 [µM]
C=CCSc1ncc(Cc2cccs2)c(N)n1 [Example 9, 2-Allylsulfanyl-5-thiophen-2-ylmethyl-pyrimidin-4-ylamine] | 2.79
C=CCOC(=O)CSc1ncc(Cc2ccccc2)c(N)n1 [Example 22, (4-Amino-5-benzyl-pyrimidin-2-ylsulfanyl)-acetic acid allyl ester] | 0.12
CC1CC1COC(=O)CSc1ncc(Cc2ccccc2)c(N)n1 (centres unmarked) [Example 24, (4-Amino-5-benzyl-pyrimidin-2-ylsulfanyl)-acetic acid 2-methyl-cyclopropylmethyl ester] | 0.63
CCOC(=O)CSc1ncc(-c2ccc(Cl)cc2Cl)c(N)n1 [Example 5, [4-Amino-5-(2,4-dichloro-phenyl)-pyrimidin-2-ylsulfanyl]-acetic acid ethyl ester] | 3.85
CCOC(=O)CSc1ncc(Cc2ccccc2)c(N)n1 [Example 3, (4-Amino-5-benzyl-pyrimidin-2-ylsulfanyl)-acetic acid ethyl ester] | 0.14
Nc1nc(SCC(=O)OCC2CC2)ncc1Cc1ccccc1 [Example 29, (4-Amino-5-benzyl-pyrimidin-2-ylsulfanyl)-acetic acid cyclopropylmethyl ester] | 0.2
C#CCSc1ncc(Cc2cccs2)c(N)n1 [Example 8, 2-Prop-2-ynylsulfanyl-5-thiophen-2-ylmethyl-pyrimidin-4-ylamine] | 1.39
CCOC(=O)CSc1ncc(Cc2ccsc2)c(N)n1 [Example 12, (4-Amino-5-thiophen-3-ylmethyl-pyrimidin-2-ylsulfanyl)-acetic acid ethyl ester] | 0.18
CCOC(=O)CSc1ncc(Cc2cccs2)c(NCC(C)C)n1 [Example 31] | 0.16
CCOC(=O)CSc1ncc(Cc2ccc(Br)cc2)c(N)n1 [Example 6, [4-Amino-5-(4-bromo-benzyl)-pyrimidin-2-ylsulfanyl]-acetic acid ethyl ester] | 0.18
Nc1nc(SCC(=O)OCC2CCC2)ncc1Cc1ccccc1 [Example 25, (4-Amino-5-benzyl-pyrimidin-2-ylsulfanyl)-acetic acid cyclobutylmethyl ester] | 1.46

Results, then the molecule that gave them:

IC50 [µM] | SMILES
0.6 | CCNc1nc(SCC(=O)OCC)ncc1Cc1cccs1 [Example 21, (4-Ethylamino-5-thiophen-2-ylmethyl-pyrimidin-2-ylsulfanyl)-acetic acid ethyl ester]
0.4 | Nc1nc(SCc2ncon2)ncc1Cc1cccs1 [Example 11, 2-([1,2,4]Oxadiazol-3-ylmethylsulfanyl)-5-thiophen-2-ylmethyl-pyrimidin-4-ylamine]
0.38 | CCOC(=O)CSc1ncc(Cc2cccn2C)c(N)n1 [Example 4, [4-Amino-5-(1-methyl-1H-pyrrol-2-ylmethyl)-pyrimidin-2-ylsulfanyl]-acetic acid ethyl ester]
0.27 | CCOC(=O)CSc1ncc(C(=O)OCC)c(N)n1 [Example 19, 4-Amino-2-ethoxycarbonylmethylsulfanyl-pyrimidine-5-carboxylic acid ethyl ester]
0.16 | CCOC(=O)CSc1ncc(Cc2ccoc2)c(N)n1 [Example 13, (4-Amino-5-furan-3-ylmethyl-pyrimidin-2-ylsulfanyl)-acetic acid ethyl ester]
